{
  "source": "patent US20250313563A1",
  "about": "“GLYCOGEN SYNTHASE KINASE 3 INHIBITORS AND USES THEREOF” (The Broad Institute, Inc., priority 2022, published 2025)",
  "key": {"[1]": {"biological_target": "GSK3b (GST-full length GSK3b) (Homo sapiens (Human), UniProt P49841)", "sequence (P49841 whole entry)": "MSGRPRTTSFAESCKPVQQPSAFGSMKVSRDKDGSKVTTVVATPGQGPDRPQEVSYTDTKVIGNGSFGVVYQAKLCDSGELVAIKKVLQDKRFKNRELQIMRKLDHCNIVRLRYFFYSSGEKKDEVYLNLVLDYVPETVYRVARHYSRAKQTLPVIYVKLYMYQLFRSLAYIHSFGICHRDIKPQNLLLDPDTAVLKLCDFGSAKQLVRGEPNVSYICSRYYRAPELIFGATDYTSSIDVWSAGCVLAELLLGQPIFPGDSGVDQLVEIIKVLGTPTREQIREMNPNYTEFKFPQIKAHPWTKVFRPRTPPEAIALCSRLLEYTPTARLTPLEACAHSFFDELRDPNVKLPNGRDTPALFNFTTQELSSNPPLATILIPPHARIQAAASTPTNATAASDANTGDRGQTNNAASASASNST", "assay": "GSK3b TR-FRET kinase assay", "assay_type": "biochemical", "summary_of_the_method": "(§1)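 Compound preincubated 30 min, then 1 nM GST-full-length GSK3α or GSK3b run 100 min at ambient temperature with 200 nM biotinylated, S645-prephosphorylated glycogen synthase 631-650 peptide in Tris pH 7.5, MgCl2, DTT, BSA, 1% DMSO. ATP 4 μM (α) or 2 μM (β), or 1 mM. EDTA-quenched; Tb-anti-pSer641/streptavidin-d2 TR-FRET 665/615 ratio gave IC50.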"}, "[2]": {"biological_target": "GSK3α (GST-full length GSK3α) (Homo sapiens (Human), UniProt P49840)", "sequence (P49840 whole entry)": "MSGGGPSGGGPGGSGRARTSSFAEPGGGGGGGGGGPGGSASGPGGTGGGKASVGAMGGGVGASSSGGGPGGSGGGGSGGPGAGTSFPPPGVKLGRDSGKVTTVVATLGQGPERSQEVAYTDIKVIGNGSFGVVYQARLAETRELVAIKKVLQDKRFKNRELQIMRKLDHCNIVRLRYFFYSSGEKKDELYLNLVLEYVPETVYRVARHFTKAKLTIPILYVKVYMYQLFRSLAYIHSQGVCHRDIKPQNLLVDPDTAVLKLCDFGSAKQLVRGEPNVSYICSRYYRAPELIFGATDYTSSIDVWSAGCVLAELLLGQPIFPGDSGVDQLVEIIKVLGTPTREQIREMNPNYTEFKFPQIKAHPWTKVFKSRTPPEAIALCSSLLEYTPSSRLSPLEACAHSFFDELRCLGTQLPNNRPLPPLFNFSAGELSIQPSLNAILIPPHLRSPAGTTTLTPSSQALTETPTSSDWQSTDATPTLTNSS", "assay": "GSK3α TR-FRET kinase assay", "assay_type": "biochemical", "summary_of_the_method": "as §1"}, "[3]": {"details": "1 nM GSK3b, 2 μM ATP, 30 minute preincubation, Table 16, read-out: GSK3-B TR-FRET BIOCHEMICAL (TR-FRET)"}, "[4]": {"details": "1 nM GSK3α, 4 μM ATP, 30 minute preincubation, Table 16, read-out: GSK3-A TR-FRET BIOCHEMICAL (TR-FRET)"}, "[5]": {"details": "GSK3-B (TR-FRET 1 mM ATP), GMean, IC50, 1 mM ATP, geometric mean"}, "[6]": {"details": "GSK3-A (TR-FRET 1 mM ATP), GMean, IC50, 1 mM ATP, geometric mean"}, "[7]": {"details": "1 nM GSK3b, 2 μM ATP, 30 minute preincubation, geometric mean, read-out: GSK3-B TR-FRET BIOCHEMICAL (TR-FRET), GMean, IC50"}, "[8]": {"details": "1 nM GSK3α, 4 μM ATP, 30 minute preincubation, geometric mean, read-out: GSK3-A TR-FRET BIOCHEMICAL (TR-FRET), GMean, IC50"}, "[9]": {"details": "1 nM GSK3b, 2 μM ATP, 30 minute preincubation, read-out: GSK3-B TR-FRET BIOCHEMICAL (TR-FRET), IC50"}, "[10]": {"details": "1 nM GSK3α, 4 μM ATP, 30 minute preincubation, read-out: GSK3-A TR-FRET BIOCHEMICAL (TR-FRET), IC50"}, "[11]": {"details": "1 nM GSK3b, 2 μM ATP, 30 minute preincubation, Table 16, read-out: GSK3-B TR-FRET BIOCHEMICAL (TR-FRET), IC50"}, "[12]": {"details": "1 nM GSK3α, 4 μM ATP, 30 minute preincubation, Table 16, read-out: GSK3-A TR-FRET BIOCHEMICAL (TR-FRET), IC50"}},
  "note": "Read-outs that look alike come from different tables or passages of the source.",
  "data": [
    {"molecule": "CC1(C)CC(=O)C2=C(C1)Nc1n[nH]cc1C21CC(C(F)(F)F)C1", "note": "(centres unmarked) [Compound 874527]", "values": [
      {"measurement": "IC50", "setting": "[1]; [3]", "result": "0.1 to 1", "unit": "µM"},
      {"measurement": "IC50", "setting": "[2]; [4]", "result": "≤ 0.1", "unit": "µM"}
    ]},
    {"molecule": "CC1(C)CC(=O)C2=C(C1)Nc1n[nH]cc1C21CCN(CC(F)(F)F)CC1", "note": "[Compound 874528]", "values": [
      {"measurement": "IC50", "setting": "[1]; [3]", "result": "0.1 to 1", "unit": "µM"},
      {"measurement": "IC50", "setting": "[2]; [4]", "result": "≤ 0.1", "unit": "µM"}
    ]},
    {"molecule": "CC1(C)CC(=O)C2=C(C1)Nc1n[nH]cc1C21CCN(c2ccncn2)CC1", "note": "[Compound 874529]", "values": [
      {"measurement": "IC50", "setting": "[1]; [3]", "result": "1 to 5", "unit": "µM"},
      {"measurement": "IC50", "setting": "[2]; [4]", "result": "0.1 to 1", "unit": "µM"}
    ]},
    {"molecule": "CC1(C)CC(=O)C2=C(C1)Nc1n[nH]cc1C21CCN(S(=O)(=O)c2ccccc2)CC1", "note": "[Compound 874530]", "values": [
      {"measurement": "IC50", "setting": "[1]; [3]", "result": "≤ 0.1", "unit": "µM"},
      {"measurement": "IC50", "setting": "[1]; [5]", "result": "1 to 5", "unit": "µM"},
      {"measurement": "IC50", "setting": "[2]; [4]", "result": "≤ 0.1", "unit": "µM"},
      {"measurement": "IC50", "setting": "[2]; [6]", "result": "0.1 to 1", "unit": "µM"}
    ]},
    {"molecule": "CCC1(c2cccc(-n3ccnc3)c2)C2=C(CC(C)(C)CC2=O)Nc2n[nH]cc21", "note": "(centres unmarked) [Compound 874531]", "values": [
      {"measurement": "IC50", "setting": "[1]; [7]", "result": "≤ 0.1", "unit": "µM"},
      {"measurement": "IC50", "setting": "[2]; [8]", "result": "≤ 0.1", "unit": "µM"}
    ]},
    {"molecule": "C[C@@H]1CCC[C@]2(C1)C1=C(CC(C)(C)CC1=O)Nc1n[nH]cc12", "note": "[Compound 874532]", "values": [
      {"measurement": "IC50", "setting": "[1]; [3]", "result": "≤ 0.1", "unit": "µM"},
      {"measurement": "IC50", "setting": "[2]; [4]", "result": "≤ 0.1", "unit": "µM"}
    ]},
    {"molecule": "CCC1(c2cccc(-n3ccnc3)c2)C2=C(CC(C)(C)CC2=O)Nc2n[nH]cc21", "note": "(centres unmarked) [Compound 874533]", "values": [
      {"measurement": "IC50", "setting": "[1]; [7]", "result": "> 5", "unit": "µM"},
      {"measurement": "IC50", "setting": "[2]; [8]", "result": "0.1 to 1", "unit": "µM"}
    ]},
    {"molecule": "CC1(C)CC(=O)C2=C(C1)Nc1n[nH]cc1C21CC2(CCOCC2)C1", "note": "[Compound 874534]", "values": [
      {"measurement": "IC50", "setting": "[1]; [9]", "result": "≤ 0.1", "unit": "µM"},
      {"measurement": "IC50", "setting": "[1]; [5]", "result": "0.1 to 1", "unit": "µM"},
      {"measurement": "IC50", "setting": "[2]; [10]", "result": "≤ 0.1", "unit": "µM"},
      {"measurement": "IC50", "setting": "[2]; [6]", "result": "0.1 to 1", "unit": "µM"}
    ]},
    {"molecule": "CC1(C)CC(=O)C2=C(C1)Nc1n[nH]cc1[C@]21CCCOCC1", "note": "[Compound 874535]", "values": [
      {"measurement": "IC50", "setting": "[1]; [3]", "result": "≤ 0.1", "unit": "µM"},
      {"measurement": "IC50", "setting": "[2]; [4]", "result": "≤ 0.1", "unit": "µM"}
    ]},
    {"molecule": "CC1(C)CC(=O)C2=C(C1)Nc1n[nH]cc1[C@@]21CCCOCC1", "note": "[Compound 874536]", "values": [
      {"measurement": "IC50", "setting": "[1]; [11]", "result": "1 to 5", "unit": "µM"},
      {"measurement": "IC50", "setting": "[2]; [12]", "result": "0.1 to 1", "unit": "µM"}
    ]},
    {"molecule": "C[C@@H]1CCC[C@@]2(C1)C1=C(CC(C)(C)CC1=O)Nc1n[nH]cc12", "note": "[Compound 874537]", "values": [
      {"measurement": "IC50", "setting": "[1]; [3]", "result": "0.1 to 1", "unit": "µM"},
      {"measurement": "IC50", "setting": "[2]; [4]", "result": "0.1 to 1", "unit": "µM"}
    ]},
    {"molecule": "CC[C@@]1(c2cccc(N(C)c3ccccn3)c2)C2=C(CC(C)(C)CC2=O)Nc2n[nH]cc21", "note": "[Compound 875608]", "values": [
      {"measurement": "IC50", "setting": "[1]; [7]", "result": "> 5", "unit": "µM"},
      {"measurement": "IC50", "setting": "[2]; [8]", "result": "1 to 5", "unit": "µM"}
    ]},
    {"molecule": "Cc1[nH]nc2c1C1(CCCCC1)C1=C(CC(C)(C)CC1=O)N2", "note": "[Compound 877288]", "values": [
      {"measurement": "IC50", "setting": "[1]; [11]", "result": "> 5", "unit": "µM"},
      {"measurement": "IC50", "setting": "[2]; [12]", "result": "> 5", "unit": "µM"}
    ]},
    {"molecule": "CCC1(CC)C2=C(CC(C)(C)CC2=O)Nc2n[nH]c(C3CC3)c21", "note": "[Compound 877294]", "values": [
      {"measurement": "IC50", "setting": "[1]; [11]", "result": "> 5", "unit": "µM"},
      {"measurement": "IC50", "setting": "[2]; [12]", "result": "> 5", "unit": "µM"}
    ]},
    {"molecule": "Cc1[nH]nc2c1C1(CC3(CCC3)C1)C1=C(CC(C)(C)CC1=O)N2", "note": "[Compound 877295]", "values": [
      {"measurement": "IC50", "setting": "[1]; [9]", "result": "> 5", "unit": "µM"},
      {"measurement": "IC50", "setting": "[2]; [10]", "result": "> 5", "unit": "µM"}
    ]},
    {"molecule": "CCC1(c2cccc(N3CCCCC3)c2)C2=C(CC(C)(C)CC2=O)Nc2n[nH]c(C)c21", "note": "(centres unmarked) [Compound 877311]", "values": [
      {"measurement": "IC50", "setting": "[1]; [7]", "result": "≤ 0.1", "unit": "µM"},
      {"measurement": "IC50", "setting": "[2]; [8]", "result": "≤ 0.1", "unit": "µM"}
    ]},
    {"molecule": "CC1(C)CC(=O)C2=C(C1)Nc1n[nH]cc1[C@]21CCOC1", "note": "[Compound 877313]", "values": [
      {"measurement": "IC50", "setting": "[1]; [3]", "result": "0.1 to 1", "unit": "µM"},
      {"measurement": "IC50", "setting": "[2]; [4]", "result": "0.1 to 1", "unit": "µM"}
    ]},
    {"molecule": "CC1(C)CC(=O)C2=C(C1)Nc1n[nH]cc1[C@@]21CCOC1", "note": "[Compound 877314]", "values": [
      {"measurement": "IC50", "setting": "[1]; [11]", "result": "1 to 5", "unit": "µM"},
      {"measurement": "IC50", "setting": "[2]; [12]", "result": "0.1 to 1", "unit": "µM"}
    ]},
    {"molecule": "CC1(C)CC(=O)C2=C(C1)Nc1n[nH]cc1C21CCC(c2ccccc2)CC1", "note": "(centres unmarked) [Compound 877320]", "values": [
      {"measurement": "IC50", "setting": "[1]; [3]", "result": "≤ 0.1", "unit": "µM"},
      {"measurement": "IC50", "setting": "[2]; [4]", "result": "≤ 0.1", "unit": "µM"}
    ]},
    {"molecule": "CC1(C)CC(=O)C2=C(C1)Nc1n[nH]cc1C21CCN(c2ccncc2)CC1", "note": "[Compound 880765]", "values": [
      {"measurement": "IC50", "setting": "[1]; [11]", "result": "> 5", "unit": "µM"},
      {"measurement": "IC50", "setting": "[2]; [12]", "result": "> 5", "unit": "µM"}
    ]},
    {"molecule": "CC1(C)CC(=O)C2=C(C1)Nc1n[nH]cc1C21CCN(S(C)(=O)=O)CC1", "note": "[Compound 880776]", "values": [
      {"measurement": "IC50", "setting": "[1]; [3]", "result": "≤ 0.1", "unit": "µM"},
      {"measurement": "IC50", "setting": "[2]; [4]", "result": "≤ 0.1", "unit": "µM"}
    ]},
    {"molecule": "CC1(C)CC(=O)C2=C(Nc3n[nH]cc3C23CCOCC3)[C@H]1F", "note": "[Compound 883833]", "values": [
      {"measurement": "IC50", "setting": "[1]; [3]", "result": "1 to 5", "unit": "µM"},
      {"measurement": "IC50", "setting": "[2]; [4]", "result": "0.1 to 1", "unit": "µM"}
    ]},
    {"molecule": "CC1(C)CC(=O)C2=C(Nc3n[nH]cc3C23CCOCC3)[C@@H]1F", "note": "[Compound 883834]", "values": [
      {"measurement": "IC50", "setting": "[1]; [3]", "result": "1 to 5", "unit": "µM"},
      {"measurement": "IC50", "setting": "[2]; [4]", "result": "0.1 to 1", "unit": "µM"}
    ]}
  ]
}
